Experimental data from ChEMBL document CHEMBL1201862, “PubChem BioAssay data set” (2004).
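1) Cells in 96-well plates. 2) Compound, 48 h, 5 concentrations. 3) Linear interpolation between surrounding doses. 4) Unreached endpoint = highest concentration. At the GI50, growth is halved.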 Active and inactive are the calls of the source. Cut-off read from the data, not from the text of the source: active = GI50 up to about 1.1 µM and inactive = higher.

What was measured:
Assay in all cases: NCI tumour cell line growth inhibition, 48 h
A498 = test system: A498
ACHN = test system: ACHN
CAKI-1 = test system: CAKI-1
DU-145 = test system: DU-145
HL-60 = test system: HL-60
HOP-92 = test system: HOP-92
Hs-578T = test system: Hs-578T
M14 = test system: M14
MCF7 = test system: MCF7
NCI-H23 = test system: NCI-H23
NCI-H522 = test system: NCI-H522
OVCAR-5 = test system: OVCAR-5
PC-3 = test system: PC-3
SK-MEL-28 = test system: SK-MEL-28
SK-MEL-2 = test system: SK-MEL-2
SNB-19 = test system: SNB-19
SNB-75 = test system: SNB-75
SR = test system: SR
T47D = test system: T47D
UACC-62 = test system: UACC-62

OCC1CCCCN1Cc1nc2cc(Cl)ccc2[nH]1 (stereo not given)
GI50 (A498): > 100 µM (inactive)
GI50 (ACHN): > 100 µM (inactive)
GI50 (CAKI-1): > 100 µM (inactive)
GI50 (DU-145): > 100 µM (inactive)
GI50 (HL-60): > 100 µM (inactive)
GI50 (HOP-92): > 100 µM (inactive)
GI50 (Hs-578T): > 100 µM (inactive)
GI50 (M14): > 100 µM (inactive)
GI50 (MCF7): > 100 µM (inactive)
GI50 (NCI-H23): > 100 µM (inactive)
GI50 (NCI-H522): > 100 µM (inactive)
GI50 (OVCAR-5): > 100 µM (inactive)
GI50 (PC-3): 55.2 µM (inactive)
GI50 (SK-MEL-28): > 100 µM (inactive)
GI50 (SK-MEL-2): > 100 µM (inactive)
GI50 (SNB-19): > 100 µM (inactive)
GI50 (SNB-75): > 100 µM (inactive)
GI50 (SR): > 100 µM (inactive)
GI50 (T47D): > 100 µM (inactive)
GI50 (UACC-62): > 100 µM (inactive)

CCC1=C(CC2NCCc3ccccc32)CC2c3cc(OC)c(OC)cc3CCN2C1 (stereo not given)
GI50 (A498): 0.83 µM (active)
GI50 (ACHN): 0.367 µM (active)
GI50 (CAKI-1): 0.473 µM (active)
GI50 (DU-145): 0.356 µM (active)
GI50 (HL-60): 0.847 µM (active)
GI50 (HOP-92): 0.675 µM (active)
GI50 (Hs-578T): 0.44 µM (active)
GI50 (M14): 0.502 µM (active)
GI50 (MCF7): 0.292 µM (active)
GI50 (NCI-H23): 0.94 µM (active)
GI50 (NCI-H522): 0.316 µM (active)
GI50 (OVCAR-5): 0.579 µM (active)
GI50 (PC-3): 0.333 µM (active)
GI50 (SK-MEL-28): 1.16 µM (inactive)
GI50 (SK-MEL-2): 0.603 µM (active)
GI50 (SNB-19): 0.614 µM (active)
GI50 (SNB-75): 0.531 µM (active)
GI50 (SR): 0.342 µM (active)
GI50 (T47D): 0.514 µM (active)
GI50 (UACC-62): 1.29 µM (inactive)

Oc1[nH]c(Nc2ccc(Cl)cc2)nc2ncnc1-2
GI50 (A498): > 100 µM (inactive)
GI50 (ACHN): 63.7 µM (inactive)
GI50 (CAKI-1): > 100 µM (inactive)
GI50 (DU-145): 70.1 µM (inactive)
GI50 (HL-60): > 100 µM (inactive)
GI50 (HOP-92): 81.3 µM (inactive)
GI50 (Hs-578T): 23.3 µM (inactive)
GI50 (M14): 89.1 µM (inactive)
GI50 (MCF7): > 100 µM (inactive)
GI50 (NCI-H23): > 100 µM (inactive)
GI50 (NCI-H522): 90.8 µM (inactive)
GI50 (OVCAR-5): > 100 µM (inactive)
GI50 (PC-3): > 100 µM (inactive)
GI50 (SK-MEL-28): > 100 µM (inactive)
GI50 (SK-MEL-2): > 100 µM (inactive)
GI50 (SNB-19): 33.1 µM (inactive)
GI50 (SNB-75): 43.4 µM (inactive)
GI50 (SR): 44.9 µM (inactive)
GI50 (T47D): 61.7 µM (inactive)
GI50 (UACC-62): > 100 µM (inactive)

O=C1CSC(c2ccccc2)N1c1ccc(-n2c(-c3ccccc3)nc3ccccc3c2=O)cc1 (stereo not given)
GI50 (A498): > 100 µM (inactive)
GI50 (ACHN): 47.2 µM (inactive)
GI50 (CAKI-1): > 100 µM (inactive)
GI50 (DU-145): > 100 µM (inactive)
GI50 (HL-60): 41.8 µM (inactive)
GI50 (HOP-92): > 61.1 µM (inactive)
GI50 (Hs-578T): > 83.8 µM (inactive)
GI50 (M14): > 100 µM (inactive)
GI50 (MCF7): > 92 µM (inactive)
GI50 (NCI-H23): > 71.3 µM (inactive)
GI50 (NCI-H522): 49.7 µM (inactive)
GI50 (OVCAR-5): > 100 µM (inactive)
GI50 (PC-3): 33.9 µM (inactive)
GI50 (SK-MEL-28): > 80.4 µM (inactive)
GI50 (SK-MEL-2): > 100 µM (inactive)
GI50 (SNB-19): > 69.2 µM (inactive)
GI50 (SNB-75): > 100 µM (inactive)
GI50 (SR): 26.9 µM (inactive)
GI50 (T47D): 34.8 µM (inactive)
GI50 (UACC-62): 33.3 µM (inactive)

CCCCCCCCCCCCCCCC(=O)OCC1OC(n2ccc(N)nc2=O)C(O)C1O (stereo not given)
GI50 (A498): 4.49 µM (inactive)
GI50 (ACHN): 0.753 µM (active)
GI50 (CAKI-1): 5.36 µM (inactive)
GI50 (DU-145): 2.12 µM (inactive)
GI50 (HL-60): 0.59 µM (active)
GI50 (HOP-92): > 28.8 µM (inactive)
GI50 (Hs-578T): > 100 µM (inactive)
GI50 (M14): 0.931 µM (active)
GI50 (MCF7): 1.06 µM (active)
GI50 (NCI-H23): 1.25 µM (inactive)
GI50 (NCI-H522): 3.08 µM (inactive)
GI50 (OVCAR-5): > 38 µM (inactive)
GI50 (PC-3): > 100 µM (inactive)
GI50 (SK-MEL-28): 33.5 µM (inactive)
GI50 (SK-MEL-2): > 100 µM (inactive)
GI50 (SNB-19): 16.9 µM (inactive)
GI50 (SNB-75): > 100 µM (inactive)
GI50 (SR): 1.5 µM (inactive)
GI50 (T47D): > 100 µM (inactive)
GI50 (UACC-62): 11.4 µM (inactive)
